Test results taken from patent publication US20030149235A1, “Targeting peptides” (priority 2000, published 2003).
Entries after “also recorded” stand apart in the source; their conditions may differ. Non-standard residues stand in square brackets, D forms with d. Residues, ends and D or L forms follow the SMILES beside them. *: point of attachment. Nle = CCCC[C@H](N)C(=O)O; Cbz = O=C(OCc1ccccc1)*

How the values were obtained:
[1] = test system: HEC; conditions: peptide fused to an antibody against the Ad5 fiber knob; reference [47]; cited from earlier work
[2] = test system: HepG2 hepatocytes; assay: Binding of homogenous candidate phage to cells; design: species or system human
Method: (§1) 10^7 pfu of homogenous phage populations containing candidate peptides were panned on human endothelial cells (HEC), vascular smooth muscle cells (VSMC) and HepG2 hepatocytes, binding from a control peptide-less phage, subtracted and recovery calculated and expressed as a percentage of HEC;
(§2) Phage libraries were amplified, purified and titered according to manufacturers protocols. HEC were plated into 6 well plates and cultured until 2 days post-confluence. 1×10^9 pfu of input phage library was used to pan confluent cultures of HEC (passage 2-4) in triplicate. First we used a direct screening approach and biopanned HEC for 4 rounds. Second we biopanned on HEC after biopanning for 1 hour on 2 successive cultures of VSMC, HepG2 and peripheral blood mononuclear cells (pre-clearing steps). Prior to biopanning growth media was changed to 1 ml DMEM containing 1% bovine serum albumin (BSA) and the plates were incubated at 4° C. for 15 minutes. For HEC, 1×10^9 pfu of pre-cleared or stock phage library was incubated with cells for 1 hour at 4° C. Cells were washed 5 times in ice-cold PBS/1% BSA for 5 minutes per wash. Weakly associated phage were eluted in 1 ml 0.2 M glycine (pH 2.2) for 10 minutes on ice, followed by neutralisation with 200 μl Tris-HCl (pH 8.0). High affinity phage (tightly-bound phage) were isolated by lysing the cells in 1 ml of 30 mM Tris-HCL/1 mM EDTA (pH 8.0) for 1 hour on ice. Cell debris was removed and the supernatant recovered. Phage were amplified and titered between each round to ensure that 10^9 pfu of input phage were used at the start of each successive round. Following completion of biopanning, E. coli ER2537 were infected with the resulting phage, plated and individual plaques picked, amplified, and sequenced. For further binding studies, high titer homogenous populations of each phage were prepared. Briefly, 1×10^7 pfu of each phage were biopanned on HEC, VSMC and HepG2 cells for 30 minutes at 4° C. […] The percentage recovery was calculated for each cell type using a peptide-less phage to allow for background binding.

[3] = test system: VSMC; assay: Binding of homogenous candidate phage to cells; design: species or system human
Method: as §1, §2

[4] = test system: HEC; assay: Binding of homogenous candidate phage to cells; design: species or system human; conditions: 10^7 pfu
Method: as §1, §2

[5] = test system: HUVEC; assay: wtAAVegfp transduction, eGFP fluorimetry; type: cell-based, human; conditions: 250 transduction units/cell, 40 μM LLnL, 4 μM mg132, 5 μg/ml aphidicolin, 10 μM etoposide
Excerpt: FIG. 6 illustrates the efficiency of AAV-mediated gene transfer to ECs. (A) HUVEC and HeLa cells were mock infected (open bars) or infected with 1000 transduction units/cell of wtAAVegfp (filled bars) and analyzed for eGFP expression by fluorimetry and fluorescence microscopy. (B) ECs were infected with 250 transduction units/cell wtMVegfp in the presence or absence of mg132, LLnL, genistein, hydroxyurea, aphidicolin, etoposide, or camptothecin and harvested for quantification of eGFP by fluorimetry at either 24 h or 96 h postinfection. RFU, relative fluorescent units. *Indicates statistical significance from wtMVegfp alone at the same time point. Representative of three independent experiments;
Cells were plated to reach 80% confluence 24 h later. In each case an accurate cell count was performed immediately before infection. Cells were infected with increasing doses of AAV vectors in the presence or absence of helper adenovirus (Ad) as indicated. For each cell type, Ad co-infection was performed at a dose that mediated 70% transduction, based on prior infection efficiency experiments performed on each cell type using a LacZ-expressing Ad, RAd35. At the required time point, cells were washed and lysed in 0.2% Triton X-100 in PBS and stored at −20° C. For dissection of AAV transduction of EC, cells were incubated with AAV in the absence or presence of 40 μM LLnL, 4 μM mg132, 50 μM genistein, 40 mM hydroxyurea, 5 μg/ml aphidicolin, 10 μM etoposide, 0.1 μM camptothecin or 150 nM bafilomycin A2.
Cells were infected as indicated above in the absence or presence of 1 IU heparin/[…] genomic particles and analyzed for gene expression 72 h later. In addition a column assay was carried out. AAVwt or AAVsig were loaded onto heparin columns (immobilized on cross-linked 4% beaded agarose; Sigma) that had been prepacked and equilibrated according to the manufacturer's recommendations. Purified viral preparations (6.4×10^11 particles) in 200 μl were loaded, and the flow-through, wash, and 1 M NaCl eluates were collected and analyzed by dot-blot hybridization using twofold serial dilutions. For quantification of wtAAVegfp-mediated gene transfer to vascular EC, aliquots of cell extracts were analyzed in triplicate for eGFP expression using a Wallac Victor2 multi-counter with recombinant eGFP (Clontech, Basingstoke, Hants., UK) as a standard. All data were analyzed as eGFP relative light units (RFU)/mg protein. For analysis of AAVsig and AAVwtdriven lacZ expression, aliquots of cell extracts were analyzed for beta-galactosidase expression using Galacto-Light Plus (Tropix, Mass., U.S.A.) as per manufacturer's recommendations using recombinant beta-galactosidase (Sigma, UK) as a standard. All data were expressed as RLU/mg protein.

For SIGYPLP, the “adenoviral gene transfer into human EC versus non-targeted Ad” value [1] is listed as 15 fold, the “binding to HepG2 hepatocytes compared to HEC” value [2] is listed as “limited binding; also recorded: low-level affinity” and the “binding to VSMC compared to HEC” value [3] is listed as “limited binding; also recorded: low-level affinity”. For the same compound, the “binding to HEC” value [4] was “high-level binding”.
In the case of `COc1cc([C@@H]2c3cc4c(cc3[C@@H](O[C@@H]3O[C@@H]5CO[C@@H](C)O[C@H]5[C@H](O)[C@H]3O)[C@H]3COC(=O)[C@H]23)OCO4)cc(OC)c1O` [etoposide], the “effect of agent on wtAAVegfp reporter gene expression versus infection without treatment” value [5] is reported as “enhanced”.
In the case of `CC(C)C[C@@H](C=O)NC(=O)[C@H](CC(C)C)NC(=O)[C@H](CC(C)C)NC(=O)OCc1ccccc1` [mg132] (Cbz-Leu-Leu-Leu-aldehyde), the “effect of agent on wtAAVegfp reporter gene expression versus infection without treatment” value [5] is reported as “increase”.
With `CCCC[C@@H](C=O)NC(=O)[C@H](CC(C)C)NC(=O)[C@H](CC(C)C)NC(C)=O` [LLnL] (Ac-Leu-Leu-[Nle]-aldehyde) the “effect of agent on wtAAVegfp reporter gene expression versus infection without treatment” value [5] was “increase”.
With `C[C@@]1(CO)[C@H](O)CC[C@@]2(C)[C@H]1CC[C@H]1C[C@@H]3C[C@@]12CC[C@]3(O)CO` [aphidicolin] the “effect of agent on wtAAVegfp reporter gene expression versus infection without treatment” value [5] was “enhanced”.
